These results are taken from US4127714A, “Anthracycline glycosides” (priority 1976, dated 1978).

SMILES strings stand for the structures. In brackets after ≈: the same amount, converted by molar mass. Structures can show the parent of a compound that is named as a salt.

The subject of one data set is animal tumor systems. To be noted: reported in literature; cited from earlier work.
Another data set deals with mouse L1210 leukemia. The data set is described as follows: Prolongation of survival time of CDF1 mice inoculated intraperitoneally with L1210 leukemia cells. In kind it is in vivo, mouse (CDF1). To be noted: for inhibitory effects on mouse L1210 leukemia: summary statement in words. The procedure:
Rhodirubin A and B show a marked antitumor activity with low toxicity in experimental animal tests and thus are therapeutically useful in inhibiting the growth of animal tumors. […] For example, CDF1 mice were inoculated intraperitoneally with 1 × 10^6 L1210 cells/mouse and 0.1-0.2 ml. of drug solution then administered intraperitoneally for 10 consecutive days. Observation was carried out for 30 days, and the % of prolongation of survival time to the control mice intraperitoneally administered with physiological saline was as follows: […]

In a further data set the test system is B. megaterium NRRL-938. The data set is described as follows: Minimum inhibitory concentration, broth dilution method. To be noted: Priestia megaterium, NRRL938. It is filed as cell-based. (In general: Dilution methods test growth across graded concentrations, often in twofold steps.)
The subject of the next data set is Coryne: bovis. The description is as above. In kind it is cell-based.
The subject of data set [1] is Ps. fluorescens NIHJB-254. The data set is described as above. It is filed as cell-based. To be noted: Pseudomonas fluorescens, NIHJB254.
A further data set has as its system Staph. aureus FDA 209P. The data set is described as above. It is filed as cell-based. To be noted: Staphylococcus aureus, FDA209P.
Data set [2] deals with solid and ascitic forms of malignant tumors in mammals, e.g. mouse leukemia L1210. Description: Inhibition of growth of solid and ascitic malignant tumors in mammals (summary statement). It is filed as in vivo.
Another data set concerns gram-positive bacteria. The data set is described as follows: Antimicrobial activity (summary statement). In kind it is cell-based. To be noted: against gram-positive bacteria.
The next data set relates to Sarcina lutea ATCC 9341. Description: Minimum inhibitory concentration, broth dilution method. In kind it is cell-based. To be noted: Micrococcus luteus, ATCC9341.
A further data set relates to mammalian tumor cells. The data set is described as follows: Cytotoxicity to mammalian tumor cells in culture.
A short description of data set [3]: Toxicity in experimental animal tests (summary statement). To be noted: summary statement in words.
The test system of data set [4] is Candida albicans IAM 4905. The data set is described as follows: Minimum inhibitory concentration, broth dilution method. It is filed as cell-based. To be noted: IAM4905.
The test system of a further data set is Proteus morganii. The description is as above. In kind it is cell-based. To be noted: Morganella morganii.
Data set [5] has as its system Mycobacterium smegmatis ATCC 607. The description is as above. To be noted: Mycolicibacterium smegmatis, ATCC607. It is filed as cell-based.
The next data set can be described thus: in vivo. To be noted: mouse, ip, mice, intraperitoneal injection. From the text:
The LD50 values upon intraperitoneal injection (in mice) of rhodirubin A and B are as follows: […]

Another data set relates to Staph. aureus Smith. The data set is described as follows: Minimum inhibitory concentration, broth dilution method. To be noted: Staphylococcus aureus. In kind it is cell-based.
The subject of another data set is B. subtilis ATCC 6633. Description: Minimum inhibitory concentration, broth dilution method. To be noted: Bacillus subtilis, ATCC6633. It is filed as cell-based.
The next data set has as its system B. cereus ATCC 9634. Described as above. In kind it is cell-based. To be noted: Bacillus cereus, ATCC9634.
Data set [6] deals with Candida tropicalis IAM 4942. Described as above. In kind it is cell-based. To be noted: IAM4942.
The subject of another data set is Micrococcus flavus. The data set is described as above. In kind it is cell-based.
Where [7] appears, read: in methanol, n-butanol, acetone, ethyl acetate, chloroform, toluene, benzene and dimethylsulfoxide.
[8] abbreviates: in water, n-hexane and petroleum ether.

In the case of `CC(=O)[C@]1(O)Cc2c(O)c3c(c(O)c2[C@@H](O[C@H]2C[C@H](N)[C@H](O)[C@H](C)O2)C1)C(=O)c1c(O)cccc1C3=O` [carminomycin], the “activity against several animal tumor systems” value with animal tumor systems is “active against several animal tumor systems”.

In the case of `CCC1(O)CC(OC2CC(N(C)C)C(OC3CC(O)C(OC4CCC(O)C(C)O4)C(C)O3)C(C)O2)c2c(cc3c(c2O)C(=O)c2c(O)ccc(O)c2C3=O)C1C(=O)OC` (centres unmarked) [rhodirubin A (HC1 salt)], the “Prolongation of the survival time T/C (%)” value in the data set with mouse L1210 leukemia (ip, 0.6 mg/kg, 720 h) is 102%; in the data set with mouse L1210 leukemia (ip, 1.25 mg/kg, 720 h) it was 117%; in the data set with mouse L1210 leukemia (ip, 2.5 mg/kg, 720 h), 167%; in the data set with mouse L1210 leukemia (ip, 5 mg/kg, 720 h) it was 195%; in the data set with mouse L1210 leukemia (ip, 8.5 mg/kg, 720 h), 121%; with mouse L1210 leukemia (ip, 10 mg/kg, 720 h) it was 87%.

For the compound `CCC1(O)CC(OC2CC(N(C)C)C(OC3CC(O)C(OC4CCC(O)C(C)O4)C(C)O3)C(C)O2)c2c(cc3c(c2O)C(=O)c2c(O)ccc(O)c2C3=O)C1C(=O)OC` (centres unmarked) [rhodirubin A], the MIC – broadly, the smallest concentration in the dilution series that meets the test's criterion for growth inhibition – is 0.78 µg/mL (≈ 0.94 µM) with B. megaterium NRRL-938; 0.2 µg/mL (≈ 0.241 µM) against Coryne: bovis; 100 µg/mL (≈ 120 µM) in data set [1]; 1.56 µg/mL (≈ 1.88 µM) in the data set with Staph. aureus FDA 209P; 0.4 µg/mL (≈ 0.482 µM) against Sarcina lutea ATCC 9341; over 100 µg/mL in data set [4]. In addition, the MIC in the data set on Proteus morganii is over 100 µg/mL; in [5] it was 6.25 µg/mL (≈ 7.53 µM); in the data set with Staph. aureus Smith it was 0.4 µg/mL (≈ 0.482 µM); with B. subtilis ATCC 6633 it was 0.78 µg/mL (≈ 0.94 µM); with B. cereus ATCC 9634 it was 0.2 µg/mL (≈ 0.241 µM); in [6] it was over 100 µg/mL. This compound also showed an MIC against Micrococcus flavus of 0.2 µg/mL (≈ 0.241 µM). The “inhibition of growth of malignant tumors” value in [2] is “inhibit the growth of solid and ascitic forms of malignant tumors in mammals”. The antimicrobial activity result in the data set on gram-positive bacteria is recorded as “possess antimicrobial activity, especially against gram-positive bacteria”; in the data set with gram-positive bacteria (listed as Rhodirubin A), “exhibit antimicrobial activity against gram-positive bacteria”. Further, the cytotoxicity entry with mammalian tumor cells is reported as “high cytotoxicity”. In [3], the toxicity result is reported as “low toxicity”. For the same compound, the “inhibitory effects on mouse L1210 leukemia” value in the data set with mouse L1210 leukemia is given as “marked inhibitory effects”. Moreover, the LD50 (as a rule, the dose at which mortality reaches 50%) in the data set “in vivo” fell in the range of 7.5 to 10 mg/kg. For the same compound, the Solubility entry in the data set “Solubility” (in diethyl ether) was “slightly soluble”; in the data set “Solubility” (setting [7]) it was “soluble”; in the data set “Solubility” (setting [8]) it was “insoluble”.

On to `CCC1(O)CC(OC2CC(N(C)C)C(OC3CCC(OC4CCC(O)C(C)O4)C(C)O3)C(C)O2)c2c(cc3c(c2O)C(=O)c2c(O)ccc(O)c2C3=O)C1C(=O)OC` (centres unmarked) [rhodirubin B (HC1 salt)], for which the “Prolongation of the survival time T/C (%)” value in the data set on mouse L1210 leukemia (0.6 mg./kg./day, i.p., 10 consecutive days, observed 30 days, vs physiological saline controls) turned out to be 107%; in the data set on mouse L1210 leukemia (1.25 mg./kg./day, i.p., 10 consecutive days, observed 30 days, vs physiological saline controls), 126%; in the data set with mouse L1210 leukemia (2.5 mg./kg./day, i.p., 10 consecutive days, observed 30 days, vs physiological saline controls), 215%; in the data set on mouse L1210 leukemia (5 mg./kg./day, i.p., 10 consecutive days, observed 30 days, vs physiological saline controls) it was 179%; in the data set on mouse L1210 leukemia (8.5 mg./kg./day, i.p., 10 consecutive days, observed 30 days, vs physiological saline controls), 160%; in the data set with mouse L1210 leukemia (10 mg./kg./day, i.p., 10 consecutive days, observed 30 days, vs physiological saline controls) it was 104%.

On to `CCC1(O)CC(OC2CC(N(C)C)C(OC3CCC(OC4CCC(O)C(C)O4)C(C)O3)C(C)O2)c2c(cc3c(c2O)C(=O)c2c(O)ccc(O)c2C3=O)C1C(=O)OC` (centres unmarked) [rhodirubin B], for which the MIC in the data set with B. megaterium NRRL-938 was 1.56 µg/mL (≈ 1.92 µM); in the data set with Coryne: bovis it was 0.4 µg/mL (≈ 0.491 µM); in data set [1] it was 100 µg/mL (≈ 123 µM); against Staph. aureus FDA 209P it was 1.56 µg/mL (≈ 1.92 µM); in the data set with Sarcina lutea ATCC 9341, 0.78 µg/mL (≈ 0.958 µM); in [4], over 100 µg/mL. The MIC was over 100 µg/mL against Proteus morganii; 3.1 µg/mL (≈ 3.81 µM) in data set [5]; 0.78 µg/mL (≈ 0.958 µM) in the data set with Staph. aureus Smith; 1.56 µg/mL (≈ 1.92 µM) against B. subtilis ATCC 6633; 0.4 µg/mL (≈ 0.491 µM) in the data set with B. cereus ATCC 9634; over 100 µg/mL in data set [6]. The compound also displayed an MIC in the data set with Micrococcus flavus of 0.2 µg/mL (≈ 0.246 µM). In addition, the “inhibition of growth of malignant tumors” value in data set [2] was “inhibit the growth of solid and ascitic forms of malignant tumors in mammals”. Besides, the antimicrobial activity entry is “possess antimicrobial activity, especially against gram-positive bacteria” in the data set on gram-positive bacteria and “exhibit antimicrobial activity against gram-positive bacteria” in the data set on gram-positive bacteria (listed as Rhodirubin B). In addition, in the data set with mammalian tumor cells, the cytotoxicity result is on record as “high cytotoxicity”. Also, in data set [3], the toxicity entry is given as “low toxicity”. In the data set with mouse L1210 leukemia, the “inhibitory effects on mouse L1210 leukemia” value is given as “marked inhibitory effects”. The compound also displayed an LD50 in “in vivo” of 10 to 12.5 mg/kg. Moreover, the Solubility entry in “Solubility” (in diethyl ether) is “slightly soluble”; in the data set “Solubility” (setting [7]), “soluble”; in the data set “Solubility” (setting [8]), “insoluble”.
